# Results from patent publication US20030203963A1, “Antimicrobial agent” (priority 2001, published 2003).
# Experiments:
# B. subtilis Campden = assay: Bioscreen growth inhibition test; assay type: cell-based, Bacillus subtilis; conditions: BS010510, 24 h at 30° C., APP20010213
# Method: For broth cultures and Bioscreen testing most bacteria were grown in Brain Heart Infusion (BHI, Oxoid, pH 7.4). Lactobacillus sake A10 was grown in de Man, Rogosa, Sharpe medium ([…], Oxoid). Yeasts were grown in Sabouraud Liquid medium (SLM, Oxoid). Most bacteria were cultured at 30° C. Lactic acid bacteria were grown on solid medium in enriched CO2 atmosphere. Clostridium species were grown in Reinforced Clostridial Medium (RCM) at 37° C. anaerobically. Brochothrix thermosphacta fungi and yeasts were grown at 25° C. Fungi were cultured on Malt Extract Agar (MEA, Oxoid).
# An automated Microbiology Reader Bioscreen C was used to measure growth curves of the strains in the presence and absence of APP. The Bioscreen C measures the development of turbidity (i.e. growth) kinetically by vertical photometry in 200 wells of a honeycomb microtitre plate, simultaneously. The system consists of a Bioscreen C analyser, which is an incubator and measurement unit, integrated with a PC, software (BioLink v 5.30), printer and a ‘Honeycomb 2’ cuvette multiwell plate. Growth curve data can be analysed within the BioLink software or exported to programs such as Excel.
# Broth culture media were dispensed in 270 μl volumes into the wells as directed. […] (depending on the micro-organism under investigation) with readings taken every 20 minutes after the trays were shaken. […]
# Br. thermosphacta [1] = assay: Test in milk; assay type: cell-based, Brochothrix thermosphacta; conditions: 2000 ppm, TMGB010605
# Method: (§1) 8.9 ml samples of UHT milk containing 0.5% glucose and the indicator bromocresol purple (0.01%) were prepared and sterilised by autoclaving. The pH before APP addition was pH 6.65. Appropriate stock solutions of APP batch number APP20010215 (at 138 mg/ml) were prepared and filter sterilised. 1 ml of each was added to the milk to prepare tests containing 0, 1000 and 2000 ppm APP. Tests were then inoculated with 100 μl of diluted overnight broth cultures or spore suspensions to give a final inoculum level of ca. 10^3 cfu/ml. These and uninoculated tests were incubated at 20 and 8° C. and examined daily for visible changes compared to uninoculated control.
# Lb. sake = assay: Test in milk; assay type: cell-based, Lactobacillus sake; conditions: for Control of growth: 2000 ppm, TMGB010605
# Method: as §1
# Salm Typhimurium S29 = assay: Test in cooked sausage meat slurry; assay type: cell-based, Salmonella Typhimurium; conditions: for Total inhibition for: cooked sausage meat slurry at 8° C., pH 6.2, TSM010605
# Description: 500 g of bologna sausage meat mixture was mixed with 500 g Brain Heart Infusion broth (BHIB) to make a homogeneous slurry. The bologna sausage meat mix comprised (g per kg): lean beef 320; lean pork 202; lard 250; water 40; glucose 5; starch 155; spice mix 3.75; sodium glutamate 0.5; sodium erythorbate 0.545; sodium di-phosphate 3; NaCl 20; sodium nitrite 0.15. 200 g samples of the meat slurry were autoclaved. While the meat was still warm it was re-mixed thoroughly. When the meat had cooled it was inoculated with 2 ml of 10^5 cfu/ml spore or cell suspension, and re-mixed again. Each inoculated meat sample was divided into 3×50 g samples, and 1 ml of either SDW, 2.5% or 5% APP solution (batch number APP 20010215) was added to prepare meat samples containing 0, 500 and 1000 ppm APP. The meat slurry was again shaken thoroughly to ensure even mixing, an initial viable count was taken and the samples incubated at 8° C. Samples were taken at twice-weekly intervals. The pH of the sausage meat slurry was 6.2.
# Ps. fluorescens 3756 = assay: Test in cooked minced beef slurry; assay type: cell-based, Pseudomonas fluorescens
# Method: 1 kg of minced beef, purchased from the local butcher, was mixed with 1 litre of BHI. 200 g portion of this meat slurry was autoclaved. When the meat had cooled, the pH was recorded (pH 6.24), and each pot was inoculated with 2.0 ml of 10^5 spores or cells and the meat re-mixed thoroughly. Each inoculated 200 g pot was distributed as 3×50 g portions. To each pot 1 ml of SDW, 5% or 10% APP (Batch No. APP20010215) was added, and the meat was again mixed thoroughly. An initial viable count was performed, the meat was incubated at 8° C. and sampled twice weekly. The pH of the cooked minced beef slurry was 6.24.
# Br. thermosphacta [2] = assay: Inoculated test in raw meat; assay type: cell-based, Brochothrix thermosphacta; conditions: Raw inoculated meat at 8° C. pH 5.3
# Method: Fresh beef steak was purchased from the local butcher, and minced on clean machinery. The raw meat (ca. pH 6.2) was divided into 8×90 samples and inoculated-with 10^3 cfu/ml of test organisms. The meat was mixed thoroughly using a stomacher. 10 g of SDW or 2% APP (Batch number APP20010215) was added, and the meat was again thoroughly mixed. An initial viable count was taken, the meat was incubated at 8° C., and sampled on the following days using non-selective agar (MPCA) and selective agar: XLD for Salmonella; Oxford selective agar (Listeria monocytogenes); and STAA agar (Brochothrix thermosphacta). The pH of the raw meat was pH 5.3.
smiles,measurement,setting,value
"O=C1CC(CO)OC=C1O (stereo not drawn) [APP, Ascopyrone P]",APP level causing significant inhibition,B. subtilis Campden,2000 ppm
same,APP level causing total inhibition,B. subtilis Campden,3000 ppm
same,Control for,Br. thermosphacta [1]; milk at 8° C.,1 days
same,Control of growth,Br. thermosphacta [1]; milk at 20° C.,No control observed
same,Control of growth,Lb. sake; milk at 8° C.,No control observed
same,Control of growth,Lb. sake; milk at 20° C.,No control observed
same,No inhibition (effect on growth of target organism by 2000 ppm APP),Lb. sake; Milk at 8° C. pH 6.65,Lb. sake
same,No inhibition (effect on growth of target organism by 2000 ppm APP),Lb. sake; Milk at 20° C. pH 6.65,Lb. sake
same,Total inhibition for,Salm Typhimurium S29; 500 ppm,Total inhibition by 500 for 25 d
same,Total inhibition for,Salm Typhimurium S29; 1000 ppm,Total inhibition by 1000 ppm for >38 d
same,Total inhibition (effect on growth of target organism by APP),"Salm Typhimurium S29; Cooked sausage meat slurry at 8° C. pH 6.2, (1000)",S. Typhimurium
same,Growth delayed by,"Ps. fluorescens 3756; 1000 ppm, minced beef slurry at 8° C., pH 6.24, TCM010619",1000 ppm delayed growth by 17 d
same,Total inhibition for,"Ps. fluorescens 3756; 2000 ppm, minced beef slurry at 8° C., pH 6.24, TCM010619",Total inhibition by 2000 ppm for 27 d
same,Total inhibition (effect on growth of target organism by 2000 ppm APP),Ps. fluorescens 3756; Cooked minced beef slurry at 8° C. pH 6.24,Ps. fluorescens
same,No inhibition (effect on growth of target organism by 2000 ppm APP),Br. thermosphacta [2],Br. thermosphacta
